“And” between values parts separate entries of the source, which are not always exact repeats. Equal entries are not always repeated.

Holding throughout (format): cell-based
One test has as its target T1, hP2X4 (Homo sapiens, UniProt Q99571).
T1 construct: expressed in transfected cells; host or cells: HEK-293 mito-Photina, clone 2a/4
T1 sequence (Q99571 1-388): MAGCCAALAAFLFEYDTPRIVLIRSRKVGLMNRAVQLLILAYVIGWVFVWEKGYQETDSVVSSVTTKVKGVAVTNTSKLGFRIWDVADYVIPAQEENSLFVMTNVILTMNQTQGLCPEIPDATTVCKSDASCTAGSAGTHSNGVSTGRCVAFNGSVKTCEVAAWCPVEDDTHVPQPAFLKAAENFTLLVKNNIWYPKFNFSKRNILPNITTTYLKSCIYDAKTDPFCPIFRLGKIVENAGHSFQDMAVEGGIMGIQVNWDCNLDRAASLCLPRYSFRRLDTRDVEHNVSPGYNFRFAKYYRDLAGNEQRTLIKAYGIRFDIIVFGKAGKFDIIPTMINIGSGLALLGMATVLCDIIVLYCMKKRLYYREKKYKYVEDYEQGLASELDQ
The experiment in a line: Human P2X4 HEK Cell Electrophysiology Assay B (QPatch). As to conditions: ATP 5 microM, -90 mV; read-out: Human P2X4 HEK Cells (QPatch Electrophysiology) avg IC50. On the procedure: Cell culture conditions: HEK-293 mito-Photina pcDNA3(neo-)/pPURO N/pcDNA3_P2RX4, clone 2a/4 (HEK-293 mito-Photina/hP2RX4) cells were cultured in EMEM Minimum Essential Medium Eagle with Earl's salts Balanced Salt Solution (BioWhittaker cat. BE12-125F) supplemented with 5 mL of 200 mM Ultraglutaminel (BioWhittaker cat. BE17-605E/U1), 5 mL of 100× Penicillin/Streptomycin (BioWhittaker cat. DE17-602E; final concentration 1%), 4 mL of 50 mg/mL G418 (Sigma cat. G8168-100 mL; final concentration 400 μg/mL), 10 μL of 10 mg/mL Puromicin (InvivoGen cat. ant-pr-1; final concentration 0.2 μg/mL) and 50 mL of Fetal Bovine Serum (Sigma cat. F7524; final concentration 10%).
Experimentalprotocol: HEK-293 cell lines are seeded 72 or 96 hours before experiment, at a concentration of 5 or 2.5 million cells, respectively onto a T225 flask. Just before the experiments cells are washed twice with D-PBS w/o Ca2+/Mg2+(Euroclone cat. ECB4004L) and detached from the flask with trypsin-EDTA (Sigma, cat. T4174 diluted 1/10). Cells are then re-suspended in the suspension solution: 25 mL EX-CELL ACF CHO medium (Sigma, cat. C5467); 0.625 mL HEPES (BioWhittaker, cat. BE17-737E); 0.25 mL of 100× Penicillin/Streptomycin (BioWhittaker, cat. DE17-602E), 0.1 mL of Soybean Trypsin Inhibitor 10 mg/mL (Sigma, cat. T6522) and placed on the QPatch 16X.
Compound preparation and storage: Compound stock solutions (10 mM; 100% DMSO; stored at −20° C.) were used. Fresh solutions from stock (1 or 3 mM, 100% DMSO) were prepared just before the experiments (0.1% final DMSO concentration).
Patch clamp analysis with QPatch16X (FIG. 1): Standard whole-cell voltage clamp experiments are performed at room temperature using the multihole technology.
For the voltage clamp experiments on hP2X4, data are sampled at 2 KHz. After establishment of the seal and the passage in the whole cell configuration, the cells are held at −90 mV and the hP2X4 current is evoked by the agonist in the absence (vehicle period, i.e. 0.1% DMSO) or in the presence of the compound under investigation at increasing concentrations; see the application protocol in FIG. 1.
Output: the maximum inward current induced by the agonist (ATP 5 microM).
The intracellular solution contained (mM) 135 CsF, 10 NaCl, 1 EGTA, 10 HEPES (pH 7.2 with CsOH) whereas the extracellular solution (mM) 145 NaCl, 4 KCl, 0.5 MgCl2, 1 CaCl2, […], 10 Glucose (pH 7.4 with NaOH).
For data collection, the Sophion software was used and the analysis was performed off-line using Excel and GraphPad Prism.
When possible, i.e. when the % of inhibition with the highest concentration tested was more than 50%, the dose-response curves data were fitted with the following equation:
[X is log of concentration; Y is normalized response (100% down to 0%, decreasing as X increases); Log IC50 same log units as X; HillSlope is unitless slope factor or hill slope]
(The patch-clamp technique gives a direct electrical read-out from membranes.)

The next test concerns the target T2, human P2X4 (Homo sapiens, UniProt Q99571).
T2 sequence (Q99571 1-388): T1 sequence (Q99571 1-388)
The experiment in a line: Human P2X4 HEK Cell FLIPR Assay. Further details: expressed in transfected cells; host or cells: HEK293. As to conditions: HEK293 cells, agonist Bz-ATP at EC80; for Emax: percentage of maximal inhibition, read-out: Human P2X4 HEK Cells (FLIPR Assay) avg Efficacy. As for the experimental part: HEK293 cells stably expressing human P2X4 were plated in poly-D-lysine-coated 384-well plates at a seeding density of 30000 cells/well and incubated overnight. P2X4 function was assessed by measuring intracellular calcium changes using the calcium-chelating dye Fluo8-AM (Molecular Devices) on a fluorescent imaging plate reader (FLEX/FLIPR station; Molecular Devices). On the day of the assay, the medium was removed and the cells were incubated for 30 min at 37° C. and 5% CO2 in 30 μL of dye buffer (Hank's balanced salt solution, 10 mM HEPES, 1.8 mM CaCl2, 1 mM MgCl2, 2 mM probenecid, 5 mM D-glucose monohydrate, 5 μM Fluo8-AM, pH=7.4). Compounds diluted in probenecid buffer (Hank's balanced salt solution, 10 mM HEPES, 1.8 mM CaCl2, 1 mM MgCl2, 2 mM probenecid, 5 mM D-glucose monohydrate, pH=7.4) were added in a volume of 10 μL and allowed to incubate for 30 min at room temperature. The final assay DMSO concentration was 0.5%. The agonist, Bz-ATP (Tocris), was added in a volume of 10 μL at a concentration representing the EC80 value. The EC80 value of Bz-ATP was determined each assay day prior to compound profiling. The fluorescence was measured for an interval of 120 sec at 2 sec intervals. The excitation and emission wavelengths used to monitor fluorescence were 470-495 nm and 515-575 nm, respectively. The data was analyzed based on the increase in peak relative fluorescence units (RFU) compared to the basal fluorescence and the data was normalized to the agonist control. The compounds were tested in triplicates per plate and mean values were plotted in Excel XL-Fit to determine IC50 values, percentage of maximal inhibition and the Hill coefficients.

The next test addresses T3, endogenous P2X4 channels (Homo sapiens, UniProt Q99571).
T3 construct: measure calcium influx through endogenous P2X4 channels into primary human monocytes; endogenous in cells; host or cells: primary human monocytes isolated from donor PBMCs
T3 sequence (Q99571 1-388): T1 sequence (Q99571 1-388)
The experiment in a line: Human Monocyte P2X4 Assay (FLIPR). The settings on record: primary human monocytes, 3 μM BzATP, one value per donor; for Emax: read-out: Human P2X4 Monocytes (FLIPR Assay) Efficacy for different donors; for IC50: read-out: Human P2X4 Monocytes (FLIPR Assay) IC50 for different donors. As for the experimental part:
The principle of the assay is to measure calcium influx through endogenous P2X4 channels into primary human monocytes, following activation by 2′,3′-O-(4-benzoyl-benzoyl)-ATP (Bz-ATP). Intracellular calcium concentration changes were measured with a Flipr™ (Molecular Devices) device using a calcium sensitive dye (Fluo-8). In primary monocytes P2X4 is located at the lysosome membrane, therefore exocytosis has to be triggered to expose P2X4 at the cellular membrane.
Human peripheral blood mononuclear cells (PBMCs) from anticoagulated blood (blood cells, BC) were isolated via density gradient centrifugation. Whole blood was diluted 1:3 with PBS. Samples of 30 mL were layered carefully on top of 15 mL Biocoll (BIOCHROM) in 50 mL centrifuge tubes (Falcon). Tubes were centrifuged at 914×g for 25 min at RT without brake. The PBMC layer was removed with a 10 mL pipette and transferred into tubes with ice-cold PBS in a total volume of 50 mL. Cells were washed twice by pelleting at 300×g at 4° C., for 10 min and for 5 min respectively. PBMCs were re-suspended in 10 mL medium (X-vivo, Biozym Scientific) and counted in a Neubauer chamber.
Monocytes were isolated by negative selection using the Monocyte isolation kit II from Miltenyi (#130-091-153) according to the instructions. Isolation should be done fast and cells and solutions should be kept on ice at any time. PBMCs in batches of 10exp8 cells were pelleted (300×g, 10 min) and re-suspended with 300 μL MACS buffer in a 50 mL Falcon tube. FcR Blocking reagent (100 μl) and Biotin-Ab (100 μl) were added, mixed and incubated on ice for 10 min. MACS buffer (300 μL) and anti-Biotin Micro-beads (100 μL) were added, mixed and incubated on ice for 15 min. Cells were washed by pelleting (300×g for 10 min) and re-suspended in 500 μL MACS buffer. For each batch one separation column was placed in the MACS separator and rinsed with 3 mL MACS buffer. The cell suspension was added to the column, followed by 3×3 mL MACS buffer for washing, and the eluent containing the monocytes was collected. Cells were pelleted (300×g for 10 min), re-suspended in X-vivo medium and counted. Monocytes were seeded into fibronectin-coated micro-plates (384-well, black, flat transparent bottom; Corning #3848) at a density of 30,000 cells/well in 50 μL, and cultivated over night (37° C., 5% CO2).
Test substances were dissolved in 100% DMSO at a stock concentration of 10 mM and stored at −20° C. in aliquots. Serial dilutions (2×) were prepared in DMSO and diluted 500× with assay buffer to generate the antagonist plate. In the Flipr measurement, 10 μL per well were transferred (4× dilution) and a final top concentrations of 5 μM and 0.05% DMSO were obtained in the assay. Agonist BzATP was stored at 10 mM in aliquots and diluted to an intermediate concentration of 15 μM to generate the agonist plate. In the Flipr measurement, 10 μL per well were transferred (5× dilution) so that a final assay concentration of 3 μM was obtained.
For the experiment, the medium of the cell plate was discarded manually and 70 μL/well loading buffer was added and incubated for 1 h (37° C., 5% CO2). Loading buffer contained HBSS (w/o calcium/magnesium), 10 mM Hepes pH 7.4, 5 μM Fluo-8 (AM) (Tebu-bio) and 50 mM methylamine (Sigma) to trigger exocytosis. Loading buffer was discarded manually and 30 μL/well low-calcium assay buffer (5 mM KCl, 145 mM NaCl, 0.5 mM CaCl2), 13 mM glucose, 10 mM Hepes pH 7.4) was added. The antagonist plate was transferred (10 μL/well) and after 15 min at RT the agonist plate (10 μL/well) was transferred.
Agonist addition was recorded for 240 seconds after a 10 second baseline. For analysis, a baseline correction was applied, and the maximum of the curve was extracted. Data were normalized towards 0% inhibition (signal at 3 μM BzATP) and 100% inhibition (absence of BzATP stimulation) and fitted with a four-parameter sigmoidal inhibition curve using Prism Graph Pad to obtain IC50 values.

Usually IC50 stands for the concentration needed to halve the response being measured. In the case of `NS(=O)(=O)c1cc(NC(=O)Cc2ccccc2F)ccc1-n1cc(C(F)(F)F)cn1` [Example 20, 2-(2-Fluorophenyl)-N-{3-sulfamoyl-4-[4-(trifluoromethyl)-1H-pyrazol-1-yl]phenyl}-acetamide], the half-maximal inhibitory concentration (IC50) is 0.195 µM at hP2X4 and 0.14 µM at human P2X4.

For the compound `NS(=O)(=O)c1cc(NC(=O)Cc2ccccc2Cl)ccc1-n1cnc(Cl)n1` [Example 24, 2-(2-Chlorophenyl)-N-[4-(3-chloro-1H-1,2,4-triazol-1-yl)-3-sulfamoylphenyl]-acetamide], at endogenous P2X4 channels, the Emax worked out at 79%; the IC50 was 0.141 µM and 0.034 µM and 0.091 µM. Moreover, the IC50 at human P2X4 was determined as 0.045 µM.

For `NS(=O)(=O)c1cc(NC(=O)Cc2ccccc2Cl)ccc1-n1cc(Cl)cn1` [Example 25, 2-(2-Chlorophenyl)-N-[4-(4-chloro-1H-pyrazol-1-yl)-3-sulfamoylphenyl]acetamide], the IC50 on hP2X4 worked out at 0.222 µM; on human P2X4, 0.026 µM.

Turning to `NS(=O)(=O)c1cc(NC(=O)Cc2ccccc2Cl)ccc1-n1cc(Br)cn1` [Example 28, N-[4-(4-Bromo-1H-pyrazol-1-yl)-3-sulfamoylphenyl]-2-(2-chlorophenyl)acetamide], the IC50 on endogenous P2X4 channels is 0.078 µM and 0.164 µM. For the same compound, on human P2X4, the IC50 came to 0.031 µM and the Emax was found to be 90%.

Take `COc1ccc(CC(=O)Nc2ccc(-n3cc(Cl)cn3)c(S(N)(=O)=O)c2)cc1` [Example 170, N-[4-(4-Chloro-1H-pyrazol-1-yl)-3-sulfamoylphenyl]-2-(4-methoxyphenyl)acetamide]: at endogenous P2X4 channels, the Emax was 60%; the IC50 was 0.303 µM and 0.183 µM and 0.11 µM. Further, at human P2X4, the IC50 amounted to 0.126 µM and the Emax came out at 70%.

In the case of `NS(=O)(=O)c1cc(NC(=O)Cc2ccccc2F)cnc1-c1cnn(C(F)F)c1` [Example 321, N-{6-[1-(Difluoromethyl)-1H-pyrazol-4-yl]-5-sulfamoylpyridin-3-yl}-2-(2-fluorophenyl)acetamide], the results for the IC50 on hP2X4 and at human P2X4 were 0.227 µM and 0.087 µM, respectively.

In the case of `NS(=O)(=O)c1cc(NC(=O)Cc2ccccc2Cl)ccc1-c1cncc(C(F)(F)F)c1` [Example 331, 2-(2-Chlorophenyl)-N-{3-sulfamoyl-4-[5-(trifluoromethyl)pyridin-3-yl]phenyl}-acetamide], the half-maximal inhibitory concentration (IC50) on hP2X4 worked out at 0.155 µM; at human P2X4 it was 0.025 µM.

For `NS(=O)(=O)c1cc(NC(=O)Cc2ccccc2Cl)cnc1-n1cc(Cl)cn1` [Example 387, 2-(2-Chlorophenyl)-N-[6-(4-chloro-1H-pyrazol-1-yl)-5-sulfamoylpyridin-3-yl]acetamide], at endogenous P2X4 channels, the Emax was 35%; the IC50 is 0.122 µM and 0.104 µM. At human P2X4, this compound came in with an IC50 of 0.034 µM.
